ChEMBL document CHEMBL4507278 (2021)

What was measured:
[1] = target: Tyrosine-protein kinase ZAP-70 (Homo sapiens) (UniProt P43403); conditions: Compound concentration 1000.0 nM
[2] = system: Mast/stem cell growth factor receptor Kit (Homo sapiens), P10721 [L576P]; conditions: Compound concentration 1000.0 nM
[3] = system: Fibroblast growth factor receptor 3 (Homo sapiens), P22607 [G697C]; conditions: Compound concentration 1000.0 nM
[4] = target: Bone morphogenetic protein receptor type-1B (Homo sapiens) (UniProt O00238); conditions: Compound concentration 1000.0 nM
[5] = target: Mitogen-activated protein kinase 6 (Homo sapiens) (UniProt Q16659); conditions: Compound concentration 1000.0 nM
[6] = system: Proto-oncogene tyrosine-protein kinase receptor Ret (Homo sapiens), P07949 [V804L]; conditions: Compound concentration 1000.0 nM
[7] = target: Transient receptor potential cation channel subfamily M member 6 (Homo sapiens) (UniProt Q9BX84); conditions: Compound concentration 1000.0 nM
[8] = target: Mitogen-activated protein kinase kinase kinase kinase 5 (Homo sapiens) (UniProt Q9Y4K4); conditions: Compound concentration 1000.0 nM
[9] = system: Tyrosine-protein kinase ABL1 (Homo sapiens), P00519 [Y253F]; conditions: Compound concentration 1000.0 nM
[10] = target: Serine/threonine-protein kinase PLK3 (Homo sapiens) (UniProt Q9H4B4); conditions: Compound concentration 1000.0 nM
[11] = target: Serine/threonine-protein kinase 32B (Homo sapiens) (UniProt Q9NY57); conditions: Compound concentration 1000.0 nM
[12] = target: Tyrosine-protein kinase ABL2 (Homo sapiens) (UniProt P42684); conditions: Compound concentration 1000.0 nM
[13] = target: Ephrin type-A receptor 6 (Homo sapiens) (UniProt Q9UF33); conditions: Compound concentration 1000.0 nM
[14] = target: Phosphatidylinositol 5-phosphate 4-kinase type-2 gamma (Homo sapiens) (UniProt Q8TBX8); conditions: Compound concentration 1000.0 nM
[15] = target: Serine/threonine-protein kinase 36 (Homo sapiens) (UniProt Q9NRP7); conditions: Compound concentration 1000.0 nM
[16] = target: Serine/threonine-protein kinase Nek2 (Homo sapiens) (UniProt P51955); conditions: Compound concentration 1000.0 nM
[17] = target: Cyclin-dependent kinase-like 1 (Homo sapiens) (UniProt Q00532); conditions: Compound concentration 1000.0 nM
[18] = target: Cyclin-dependent kinase 14 (Homo sapiens) (UniProt O94921); conditions: Compound concentration 1000.0 nM
[19] = target: Mitogen-activated protein kinase kinase kinase 11 (Homo sapiens) (UniProt Q16584); conditions: Compound concentration 1000.0 nM
[20] = target: Discoidin domain-containing receptor 2 (Homo sapiens) (UniProt Q16832); conditions: Compound concentration 1000.0 nM
[21] = target: cAMP-dependent protein kinase catalytic subunit alpha (Homo sapiens) (UniProt P17612); conditions: Compound concentration 1000.0 nM
[22] = target: Serine/threonine-protein kinase RIO2 (Homo sapiens) (UniProt Q9BVS4); conditions: Compound concentration 1000.0 nM
[23] = target: Casein kinase I isoform gamma-3 (Homo sapiens) (UniProt Q9Y6M4); conditions: Compound concentration 1000.0 nM
[24] = target: Death-associated protein kinase 2 (Homo sapiens) (UniProt Q9UIK4); conditions: Compound concentration 1000.0 nM
[25] = system: Mast/stem cell growth factor receptor Kit (Homo sapiens), P10721 [V559D]; conditions: Compound concentration 1000.0 nM
[26] = target: Tyrosine-protein kinase receptor TYRO3 (Homo sapiens) (UniProt Q06418); conditions: Compound concentration 1000.0 nM
[27] = target: Serine/threonine-protein kinase SBK1 (Homo sapiens) (UniProt Q52WX2); conditions: Compound concentration 1000.0 nM
[28] = target: Microtubule-associated serine/threonine-protein kinase 1 (Homo sapiens) (UniProt Q9Y2H9); conditions: Compound concentration 1000.0 nM
[29] = system: Receptor-type tyrosine-protein kinase FLT3 (Homo sapiens), P36888 [UNDEFINED MUTATION]; conditions: Compound concentration 1000.0 nM
[30] = target: Protein kinase C theta type (Homo sapiens) (UniProt Q04759); conditions: Compound concentration 1000.0 nM
[31] = target: Ribosomal protein S6 kinase beta-1 (Homo sapiens) (UniProt P23443); conditions: Compound concentration 1000.0 nM
[32] = target: Peripheral plasma membrane protein CASK (Homo sapiens) (UniProt O14936); conditions: Compound concentration 1000.0 nM
[33] = target: 5-hydroxytryptamine receptor 7 (Homo sapiens) (UniProt P34969); conditions: Compound concentration 10.0 uM
[34] = target: Tyrosine-protein kinase Fgr (Homo sapiens) (UniProt P09769); conditions: Compound concentration 1000.0 nM
[35] = target: Serine/threonine-protein kinase PAK 5 (Homo sapiens) (UniProt Q9P286); conditions: Compound concentration 1000.0 nM
[36] = system: Epidermal growth factor receptor (Homo sapiens), P00533 [L858R,T790M]; conditions: Compound concentration 1000.0 nM
[37] = target: Receptor-interacting serine/threonine-protein kinase 4 (Homo sapiens) (UniProt P57078); conditions: Compound concentration 1000.0 nM
[38] = target: Histamine H2 receptor (Homo sapiens) (UniProt P25021); conditions: Compound concentration 10.0 uM
[39] = target: RAC-gamma serine/threonine-protein kinase (Homo sapiens) (UniProt Q9Y243); conditions: Compound concentration 1000.0 nM
[40] = target: Ankyrin repeat and protein kinase domain-containing protein 1 (Homo sapiens) (UniProt Q8NFD2); conditions: Compound concentration 1000.0 nM
[41] = system: Phosphatidylinositol 4,5-bisphosphate 3-kinase catalytic subunit alpha isoform (Homo sapiens), P42336 [I800L]; conditions: Compound concentration 1000.0 nM
[42] = target: Mitogen-activated protein kinase 14 (Homo sapiens) (UniProt Q16539); conditions: Compound concentration 1000.0 nM
[43] = target: Insulin receptor-related protein (Homo sapiens) (UniProt P14616); conditions: Compound concentration 1000.0 nM
[44] = target: Serine/threonine-protein kinase Sgk1 (Homo sapiens) (UniProt O00141); conditions: Compound concentration 1000.0 nM
[45] = target: Serine/threonine-protein kinase tousled-like 2 (Homo sapiens) (UniProt Q86UE8); conditions: Compound concentration 1000.0 nM
Serine/threonine-protein kinase tousled-like 2 (Homo sapiens), sequence (Q86UE8 whole entry, looked up): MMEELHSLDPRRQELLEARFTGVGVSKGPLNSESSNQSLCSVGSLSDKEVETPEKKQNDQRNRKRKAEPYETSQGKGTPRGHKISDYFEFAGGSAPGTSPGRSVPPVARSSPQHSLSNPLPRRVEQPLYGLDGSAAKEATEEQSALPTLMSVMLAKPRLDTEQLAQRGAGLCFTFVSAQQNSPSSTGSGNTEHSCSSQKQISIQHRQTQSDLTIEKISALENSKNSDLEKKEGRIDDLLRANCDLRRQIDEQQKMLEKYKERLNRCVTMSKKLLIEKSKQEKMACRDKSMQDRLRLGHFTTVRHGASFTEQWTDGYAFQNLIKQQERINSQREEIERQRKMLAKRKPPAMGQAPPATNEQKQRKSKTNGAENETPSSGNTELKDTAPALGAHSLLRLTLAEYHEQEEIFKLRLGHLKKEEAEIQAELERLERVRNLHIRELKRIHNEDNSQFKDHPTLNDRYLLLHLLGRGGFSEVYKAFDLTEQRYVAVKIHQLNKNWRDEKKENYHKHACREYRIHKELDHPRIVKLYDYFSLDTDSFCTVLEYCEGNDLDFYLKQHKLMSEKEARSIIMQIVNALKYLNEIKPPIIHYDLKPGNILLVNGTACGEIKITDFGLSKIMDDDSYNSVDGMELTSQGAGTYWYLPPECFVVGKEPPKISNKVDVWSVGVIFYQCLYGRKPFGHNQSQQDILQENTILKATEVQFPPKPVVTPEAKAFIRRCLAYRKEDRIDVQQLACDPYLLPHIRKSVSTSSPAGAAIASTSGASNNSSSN

5-hydroxytryptamine receptor 7 (Homo sapiens), sequence (P34969 whole entry): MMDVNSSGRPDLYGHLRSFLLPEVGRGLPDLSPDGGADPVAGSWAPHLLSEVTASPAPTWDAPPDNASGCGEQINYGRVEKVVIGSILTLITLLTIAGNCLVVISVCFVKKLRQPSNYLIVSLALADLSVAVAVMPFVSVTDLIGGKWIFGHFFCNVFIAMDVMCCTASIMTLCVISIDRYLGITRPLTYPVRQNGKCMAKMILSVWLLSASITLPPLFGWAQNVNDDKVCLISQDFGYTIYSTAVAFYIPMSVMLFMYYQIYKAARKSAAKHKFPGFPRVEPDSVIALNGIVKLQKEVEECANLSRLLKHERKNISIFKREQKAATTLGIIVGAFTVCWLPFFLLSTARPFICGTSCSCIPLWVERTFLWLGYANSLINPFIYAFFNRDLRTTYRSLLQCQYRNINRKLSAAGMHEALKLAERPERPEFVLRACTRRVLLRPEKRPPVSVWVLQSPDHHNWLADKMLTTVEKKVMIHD
Mitogen-activated protein kinase kinase kinase 11 (Homo sapiens), sequence (Q16584 whole entry, looked up, the tested form may be a part): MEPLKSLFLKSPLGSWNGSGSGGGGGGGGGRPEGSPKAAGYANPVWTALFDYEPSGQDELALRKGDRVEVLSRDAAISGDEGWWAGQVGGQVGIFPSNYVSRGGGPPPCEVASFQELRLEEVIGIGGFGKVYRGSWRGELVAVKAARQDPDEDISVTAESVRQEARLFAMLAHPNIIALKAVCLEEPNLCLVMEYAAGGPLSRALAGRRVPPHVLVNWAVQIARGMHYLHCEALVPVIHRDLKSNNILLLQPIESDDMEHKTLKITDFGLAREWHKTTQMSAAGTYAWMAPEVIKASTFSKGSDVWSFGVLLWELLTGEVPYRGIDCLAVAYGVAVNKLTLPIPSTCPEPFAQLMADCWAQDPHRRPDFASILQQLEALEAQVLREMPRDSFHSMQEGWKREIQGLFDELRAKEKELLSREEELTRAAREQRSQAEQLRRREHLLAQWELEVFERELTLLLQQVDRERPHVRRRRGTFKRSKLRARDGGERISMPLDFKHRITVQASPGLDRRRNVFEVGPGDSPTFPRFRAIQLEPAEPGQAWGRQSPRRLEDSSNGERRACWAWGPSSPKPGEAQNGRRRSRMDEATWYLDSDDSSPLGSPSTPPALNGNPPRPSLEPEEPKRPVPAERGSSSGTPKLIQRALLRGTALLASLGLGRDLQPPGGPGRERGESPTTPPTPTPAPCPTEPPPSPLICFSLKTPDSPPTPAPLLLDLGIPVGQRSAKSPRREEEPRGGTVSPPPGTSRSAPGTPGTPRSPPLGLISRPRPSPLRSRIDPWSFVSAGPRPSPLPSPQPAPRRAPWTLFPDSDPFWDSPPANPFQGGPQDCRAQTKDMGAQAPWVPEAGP
Serine/threonine-protein kinase PLK3 (Homo sapiens), sequence (Q9H4B4 whole entry, looked up): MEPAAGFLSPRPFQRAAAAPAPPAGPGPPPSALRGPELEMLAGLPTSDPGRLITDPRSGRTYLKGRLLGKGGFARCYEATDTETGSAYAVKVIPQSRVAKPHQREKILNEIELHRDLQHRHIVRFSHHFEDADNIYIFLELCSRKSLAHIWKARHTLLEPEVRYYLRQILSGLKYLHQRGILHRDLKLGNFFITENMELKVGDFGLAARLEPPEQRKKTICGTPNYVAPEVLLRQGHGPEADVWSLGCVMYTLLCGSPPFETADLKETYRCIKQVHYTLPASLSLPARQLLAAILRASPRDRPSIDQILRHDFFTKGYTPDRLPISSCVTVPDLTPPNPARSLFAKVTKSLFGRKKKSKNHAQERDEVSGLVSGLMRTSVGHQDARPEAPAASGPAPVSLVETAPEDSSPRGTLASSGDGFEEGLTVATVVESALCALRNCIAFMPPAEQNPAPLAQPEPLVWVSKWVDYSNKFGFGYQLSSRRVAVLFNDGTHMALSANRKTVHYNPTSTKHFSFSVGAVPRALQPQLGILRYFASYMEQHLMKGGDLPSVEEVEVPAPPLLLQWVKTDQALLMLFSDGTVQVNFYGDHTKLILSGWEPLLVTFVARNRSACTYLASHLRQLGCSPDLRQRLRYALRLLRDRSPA
Serine/threonine-protein kinase PAK 5 (Homo sapiens), sequence (Q9P286 whole entry, looked up): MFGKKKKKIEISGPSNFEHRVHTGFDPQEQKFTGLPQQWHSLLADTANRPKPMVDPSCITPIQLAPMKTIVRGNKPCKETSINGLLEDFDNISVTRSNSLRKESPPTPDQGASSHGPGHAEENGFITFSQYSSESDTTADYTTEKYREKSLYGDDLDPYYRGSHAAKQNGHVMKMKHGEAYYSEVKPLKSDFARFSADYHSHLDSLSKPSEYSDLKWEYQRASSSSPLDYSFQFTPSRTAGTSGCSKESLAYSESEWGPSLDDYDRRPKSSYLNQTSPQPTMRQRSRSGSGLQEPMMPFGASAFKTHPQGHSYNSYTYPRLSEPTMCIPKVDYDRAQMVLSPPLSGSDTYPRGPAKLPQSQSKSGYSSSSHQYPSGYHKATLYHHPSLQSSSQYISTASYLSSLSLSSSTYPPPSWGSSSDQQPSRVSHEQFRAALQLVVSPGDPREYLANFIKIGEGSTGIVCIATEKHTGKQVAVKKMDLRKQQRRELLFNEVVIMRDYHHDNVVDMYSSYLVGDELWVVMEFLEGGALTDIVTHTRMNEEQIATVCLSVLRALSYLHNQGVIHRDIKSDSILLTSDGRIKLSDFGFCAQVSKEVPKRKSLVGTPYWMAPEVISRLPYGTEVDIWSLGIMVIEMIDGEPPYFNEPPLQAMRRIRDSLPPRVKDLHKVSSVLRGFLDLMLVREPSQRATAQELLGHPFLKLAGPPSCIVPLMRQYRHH
Tyrosine-protein kinase ABL2 (Homo sapiens), sequence (P42684 whole entry): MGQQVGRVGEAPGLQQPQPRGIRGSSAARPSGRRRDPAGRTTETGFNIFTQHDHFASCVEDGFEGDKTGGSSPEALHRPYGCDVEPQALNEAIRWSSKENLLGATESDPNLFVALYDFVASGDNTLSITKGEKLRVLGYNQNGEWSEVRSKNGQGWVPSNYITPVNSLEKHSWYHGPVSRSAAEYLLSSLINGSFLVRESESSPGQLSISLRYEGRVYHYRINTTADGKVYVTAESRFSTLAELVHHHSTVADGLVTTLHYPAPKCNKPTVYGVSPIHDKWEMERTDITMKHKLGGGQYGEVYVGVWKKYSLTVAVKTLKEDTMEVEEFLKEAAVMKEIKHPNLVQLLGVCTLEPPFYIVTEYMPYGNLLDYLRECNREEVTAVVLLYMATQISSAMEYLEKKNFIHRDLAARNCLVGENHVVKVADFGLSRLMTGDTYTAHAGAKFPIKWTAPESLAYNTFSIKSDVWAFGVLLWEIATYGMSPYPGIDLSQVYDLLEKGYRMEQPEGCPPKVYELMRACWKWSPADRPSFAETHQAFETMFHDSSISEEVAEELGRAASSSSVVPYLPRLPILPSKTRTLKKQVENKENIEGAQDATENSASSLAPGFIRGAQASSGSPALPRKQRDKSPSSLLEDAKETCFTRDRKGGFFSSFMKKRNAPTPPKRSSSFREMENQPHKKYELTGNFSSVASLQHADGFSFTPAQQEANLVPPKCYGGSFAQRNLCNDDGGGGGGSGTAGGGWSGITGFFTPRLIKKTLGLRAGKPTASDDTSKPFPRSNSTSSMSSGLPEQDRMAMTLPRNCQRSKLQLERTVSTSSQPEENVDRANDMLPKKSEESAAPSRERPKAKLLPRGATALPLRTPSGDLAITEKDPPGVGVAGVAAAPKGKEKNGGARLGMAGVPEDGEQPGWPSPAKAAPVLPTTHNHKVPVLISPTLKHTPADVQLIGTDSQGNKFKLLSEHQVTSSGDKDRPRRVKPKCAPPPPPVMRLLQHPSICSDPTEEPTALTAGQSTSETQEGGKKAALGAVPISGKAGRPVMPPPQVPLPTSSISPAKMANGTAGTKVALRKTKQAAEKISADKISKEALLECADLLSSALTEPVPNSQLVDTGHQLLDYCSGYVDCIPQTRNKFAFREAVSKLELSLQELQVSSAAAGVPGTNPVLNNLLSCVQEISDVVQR
Serine/threonine-protein kinase SBK1 (Homo sapiens), sequence (Q52WX2 whole entry): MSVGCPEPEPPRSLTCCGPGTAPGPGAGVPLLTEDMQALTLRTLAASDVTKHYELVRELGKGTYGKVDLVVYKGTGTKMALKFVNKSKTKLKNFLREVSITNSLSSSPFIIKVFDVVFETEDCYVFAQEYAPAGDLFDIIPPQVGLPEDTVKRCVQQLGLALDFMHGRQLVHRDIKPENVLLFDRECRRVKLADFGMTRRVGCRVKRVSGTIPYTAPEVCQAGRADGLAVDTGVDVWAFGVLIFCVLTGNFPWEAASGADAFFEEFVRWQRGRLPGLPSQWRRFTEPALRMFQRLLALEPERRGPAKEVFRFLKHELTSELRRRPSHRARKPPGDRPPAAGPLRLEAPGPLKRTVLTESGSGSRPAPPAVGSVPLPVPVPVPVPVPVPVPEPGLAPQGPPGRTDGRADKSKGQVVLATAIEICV

Q: With `CS(=O)(=O)NCC[C@H](NC(=O)c1cncc2c1cnn2-c1ccc(F)cc1)c1ccnc(S(C)(=O)=O)c1` [BI 9307] as the compound, how does the residual activity [1] read?
A: The residual activity was 80%.

Q: And the residual activity [2]?
A: Its residual activity is 100%.

Q: What about the residual activity [3] of the same compound?
A: The residual activity was 82%.

Q: And the residual activity [4]?
A: Its residual activity is 100%.

Q: What about the residual activity [5] of the same compound?
A: Its residual activity is 100%.

Q: And the residual activity [6]?
A: The residual activity was 100%.

Q: And the residual activity [7]?
A: The residual activity was 100%.

Q: What about the residual activity [8] of the same compound?
A: The residual activity was 83%.

Q: And the residual activity [9]?
A: The residual activity was 95%.

Q: What about the residual activity [10] of the same compound?
A: Its residual activity is 100%.

Q: And the residual activity [11]?
A: Its residual activity is 67%.

Q: And the residual activity [12]?
A: The residual activity was 93%.

Q: And the residual activity [13]?
A: The residual activity was 100%.

Q: And the residual activity [14]?
A: Its residual activity is 0%.

Q: And the residual activity [15]?
A: The residual activity was 100%.

Q: What about the residual activity [16] of the same compound?
A: The residual activity was 97%.

Q: What about the residual activity [17] of the same compound?
A: The residual activity was 84%.

Q: What about the residual activity [18] of the same compound?
A: Its residual activity is 100%.

Q: What about the residual activity [19] of the same compound?
A: Its residual activity is 100%.

Q: And the residual activity [20]?
A: The residual activity was 100%.

Q: And the residual activity [21]?
A: Its residual activity is 100%.

Q: What about the residual activity [22] of the same compound?
A: The residual activity was 100%.

Q: What about the residual activity [23] of the same compound?
A: The residual activity was 96%.

Q: What about the residual activity [24] of the same compound?
A: Its residual activity is 100%.

Q: What about the residual activity [25] of the same compound?
A: Its residual activity is 100%.

Q: And the residual activity [26]?
A: The residual activity was 94%.

Q: And the residual activity [27]?
A: Its residual activity is 96%.

Q: And the residual activity [28]?
A: The residual activity was 100%.

Q: And the residual activity [29]?
A: Its residual activity is 99%.

Q: What about the residual activity [30] of the same compound?
A: The residual activity was 100%.

Q: What about the residual activity [31] of the same compound?
A: Its residual activity is 86%.

Q: And the residual activity [32]?
A: Its residual activity is 100%.

Q: What about the inhibition [33] of the same compound?
A: The inhibition was 4.81%.

Q: What about the residual activity [34] of the same compound?
A: Its residual activity is 100%.

Q: What about the residual activity [35] of the same compound?
A: The residual activity was 99%.

Q: And the residual activity [36]?
A: The residual activity was 78%.

Q: What about the residual activity [37] of the same compound?
A: The residual activity was 88%.

Q: And the inhibition [38]?
A: The inhibition was 2.46%.

Q: And the residual activity [39]?
A: Its residual activity is 93%.

Q: What about the residual activity [40] of the same compound?
A: The residual activity was 100%.

Q: And the residual activity [41]?
A: The residual activity was 61%.

Q: What about the residual activity [42] of the same compound?
A: The residual activity was 100%.

Q: And the residual activity [43]?
A: Its residual activity is 100%.

Q: What about the residual activity [44] of the same compound?
A: Its residual activity is 100%.

Q: What about the residual activity [45] of the same compound?
A: The residual activity was 100%.

Q: With `CS(=O)(=O)c1cc(C2(NC(=O)c3cncc4c3cnn4-c3ccc(F)cc3)CC2)ccn1` [BI 639667] as the compound, how does the residual activity [1] read?
A: Its residual activity is 71%.

Q: What about the residual activity [2] of the same compound?
A: Its residual activity is 100%.

Q: And the residual activity [3]?
A: The residual activity was 91%.

Q: What about the residual activity [4] of the same compound?
A: The residual activity was 82%.

Q: And the residual activity [5]?
A: Its residual activity is 100%.

Q: And the residual activity [6]?
A: Its residual activity is 100%.

Q: What about the residual activity [7] of the same compound?
A: The residual activity was 91%.

Q: And the residual activity [8]?
A: Its residual activity is 98%.

Q: And the residual activity [9]?
A: Its residual activity is 91%.

Q: What about the residual activity [10] of the same compound?
A: Its residual activity is 68%.

Q: What about the residual activity [11] of the same compound?
A: Its residual activity is 100%.

Q: And the residual activity [12]?
A: The residual activity was 95%.

Q: What about the residual activity [13] of the same compound?
A: The residual activity was 100%.

Q: What about the residual activity [14] of the same compound?
A: The residual activity was 100%.

Q: What about the residual activity [15] of the same compound?
A: Its residual activity is 100%.

Q: What about the residual activity [16] of the same compound?
A: The residual activity was 93%.

Q: What about the residual activity [17] of the same compound?
A: The residual activity was 69%.

Q: And the residual activity [18]?
A: The residual activity was 100%.

Q: And the residual activity [19]?
A: Its residual activity is 100%.

Q: What about the residual activity [20] of the same compound?
A: The residual activity was 100%.

Q: And the residual activity [21]?
A: Its residual activity is 100%.

Q: What about the residual activity [22] of the same compound?
A: The residual activity was 94%.

Q: What about the residual activity [23] of the same compound?
A: The residual activity was 100%.

Q: And the residual activity [24]?
A: Its residual activity is 96%.

Q: What about the residual activity [25] of the same compound?
A: Its residual activity is 100%.

Q: What about the residual activity [26] of the same compound?
A: Its residual activity is 91%.

Q: And the residual activity [27]?
A: Its residual activity is 95%.

Q: What about the residual activity [28] of the same compound?
A: Its residual activity is 100%.

Q: What about the residual activity [29] of the same compound?
A: The residual activity was 58%.

Q: And the residual activity [30]?
A: Its residual activity is 99%.

Q: And the residual activity [31]?
A: The residual activity was 100%.

Q: What about the residual activity [32] of the same compound?
A: The residual activity was 100%.

Q: And the inhibition [33]?
A: Its inhibition is 10.5%.

Q: And the residual activity [34]?
A: Its residual activity is 100%.

Q: And the residual activity [35]?
A: The residual activity was 100%.

Q: What about the residual activity [36] of the same compound?
A: Its residual activity is 81%.

Q: What about the residual activity [37] of the same compound?
A: Its residual activity is 87%.

Q: And the inhibition [38]?
A: Its inhibition is 3.34%.

Q: And the residual activity [39]?
A: Its residual activity is 96%.

Q: What about the residual activity [40] of the same compound?
A: The residual activity was 96%.

Q: And the residual activity [41]?
A: Its residual activity is 68%.

Q: What about the residual activity [42] of the same compound?
A: The residual activity was 100%.

Q: And the residual activity [43]?
A: Its residual activity is 65%.

Q: What about the residual activity [44] of the same compound?
A: Its residual activity is 97%.

Q: And the residual activity [45]?
A: Its residual activity is 100%.
